Reference: PMC4804318 (Pharmacology Research & Perspectives, 2016)

Biological target: T1, human AT1R (Homo sapiens, UniProt P30556)
T1 sequence (P30556 1-359): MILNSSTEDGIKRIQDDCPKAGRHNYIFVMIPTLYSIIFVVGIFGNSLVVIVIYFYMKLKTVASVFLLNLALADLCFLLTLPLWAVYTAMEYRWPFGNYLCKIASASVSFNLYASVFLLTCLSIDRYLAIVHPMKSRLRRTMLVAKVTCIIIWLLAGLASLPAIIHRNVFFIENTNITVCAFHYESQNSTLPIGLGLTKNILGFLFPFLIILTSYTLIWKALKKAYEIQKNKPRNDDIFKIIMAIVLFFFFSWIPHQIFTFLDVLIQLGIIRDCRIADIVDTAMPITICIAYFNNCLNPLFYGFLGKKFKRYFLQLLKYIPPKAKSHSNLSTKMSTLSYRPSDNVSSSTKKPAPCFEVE
Assay type: cell-based
Settings: CellKey assay, Fig. 1C

[Sar^1, Cys^5, Leu^8]‐AngII
potency at β‐arrestin stimulation relative to AngII and SII: less potent than AngII but more potent than SII
